Test results as given in ChEMBL document CHEMBL1201862, “PubChem BioAssay data set” (2004).
Activity calls are given as the source filed them.

How the values were obtained:
Assay type in all cases: functional
[1] = biological target: T1, Corticotropin-releasing factor receptor 2/Corticotropin-releasing factor-binding protein (Homo sapiens, UniProt P24387+Q13324); assay: Dose Response confirmation of uHTS hits for small molecule antagonists of the CRF-binding protein and CRF-R2 receptor complex.; settings: read-out: IC50_Mean
T1 sequence (Q13324 whole entry): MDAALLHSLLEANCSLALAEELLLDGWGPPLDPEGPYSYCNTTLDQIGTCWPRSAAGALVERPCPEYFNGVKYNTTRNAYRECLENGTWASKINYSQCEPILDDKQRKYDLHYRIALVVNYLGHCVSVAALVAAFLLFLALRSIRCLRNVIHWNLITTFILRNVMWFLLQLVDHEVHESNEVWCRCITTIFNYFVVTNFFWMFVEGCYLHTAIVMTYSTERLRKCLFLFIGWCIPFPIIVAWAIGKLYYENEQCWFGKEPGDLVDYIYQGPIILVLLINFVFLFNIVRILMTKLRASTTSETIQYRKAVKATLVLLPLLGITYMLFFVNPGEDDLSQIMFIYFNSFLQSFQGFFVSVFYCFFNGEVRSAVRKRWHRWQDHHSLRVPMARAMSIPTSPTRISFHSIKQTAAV
T1 sequence (P24387 whole entry): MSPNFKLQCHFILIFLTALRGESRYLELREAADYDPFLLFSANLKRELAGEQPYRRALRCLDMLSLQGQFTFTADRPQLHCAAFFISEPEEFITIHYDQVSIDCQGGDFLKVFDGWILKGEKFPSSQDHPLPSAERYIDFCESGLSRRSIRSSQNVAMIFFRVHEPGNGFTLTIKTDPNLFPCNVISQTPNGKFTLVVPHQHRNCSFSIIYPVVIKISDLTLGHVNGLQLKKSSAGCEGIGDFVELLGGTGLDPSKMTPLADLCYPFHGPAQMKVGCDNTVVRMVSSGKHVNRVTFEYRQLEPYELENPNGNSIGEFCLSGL

[2] = biological target: T1, Corticotropin-releasing factor receptor 2/Corticotropin-releasing factor-binding protein; assay: activators of CRF receptor 2 with binding protein – uHTS hits, confirmation (AID 602473); settings: read-out: EC50_Mean
H4 = assay: Luminescence Cell-Based Dose Response HTS to Identify Activators of 5'UTR Stem-Loop Driven Prion Protein mRNA Translation in H4 Neuroglioblastoma Cells. [Related pubchem assays: 1829 (Project Summary), 1814 (Primary HTS)]; settings: Homo sapiens
[3] = biological target: T2, Heat shock factor protein 1 (Mus musculus, UniProt P38532); assay: decrease of HSF1-responsive luciferase luminescence – cell-based, NIH3T3, dose retest, confirmation (AID 2382);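 also: NIH3T3 fibroblasts with HSF1-driven luciferase reporter stressed by proteasome inhibitor MG132; luminescence from HSF1-driven luciferase expression after 8 hours of MG132 stress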
T2 sequence (P38532 whole entry): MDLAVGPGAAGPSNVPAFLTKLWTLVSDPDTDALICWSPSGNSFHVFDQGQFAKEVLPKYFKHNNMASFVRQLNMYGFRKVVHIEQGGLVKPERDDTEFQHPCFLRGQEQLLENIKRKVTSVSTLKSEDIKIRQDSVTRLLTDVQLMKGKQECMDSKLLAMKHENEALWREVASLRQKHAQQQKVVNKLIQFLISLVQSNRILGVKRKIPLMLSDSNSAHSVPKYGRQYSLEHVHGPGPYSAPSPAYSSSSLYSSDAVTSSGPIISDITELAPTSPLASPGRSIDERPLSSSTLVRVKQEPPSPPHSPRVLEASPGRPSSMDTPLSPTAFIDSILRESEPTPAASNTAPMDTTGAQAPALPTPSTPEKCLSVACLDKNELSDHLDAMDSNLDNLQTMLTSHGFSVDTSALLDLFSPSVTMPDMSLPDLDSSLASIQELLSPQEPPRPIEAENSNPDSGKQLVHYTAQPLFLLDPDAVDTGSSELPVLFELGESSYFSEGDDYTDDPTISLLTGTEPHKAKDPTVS

[4] = Luminescence Cell-Based Dose Response HTS to Identify Activators of Luciferase Translation or Activity in H4 […] Cells. [Related pubchem assays: 1829 (Project Summary), 1814 (Primary HTS)]
Caspase-3 = biological target: T3, Caspase-3 (Homo sapiens, UniProt P42574);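 also: Dose-response selectivity test against caspase-3 for candidate inhibitors of sentrin-specific proteases (SENPs)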
T3 sequence (P42574 whole entry): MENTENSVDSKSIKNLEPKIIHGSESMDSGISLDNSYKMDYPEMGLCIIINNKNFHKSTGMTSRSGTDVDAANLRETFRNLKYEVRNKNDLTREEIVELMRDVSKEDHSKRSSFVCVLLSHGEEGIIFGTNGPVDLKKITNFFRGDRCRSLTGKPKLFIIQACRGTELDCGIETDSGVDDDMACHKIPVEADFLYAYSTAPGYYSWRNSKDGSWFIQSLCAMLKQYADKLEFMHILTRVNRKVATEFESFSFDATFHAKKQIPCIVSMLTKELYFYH

[5] = biological target: T4, Sentrin-specific protease 6 (Homo sapiens, UniProt Q9GZR1);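 also: Luminescence-based dose-response confirmatory assay of SENP6 inhibition, following up an ultra-high-throughput screen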
T4 sequence (Q9GZR1 whole entry): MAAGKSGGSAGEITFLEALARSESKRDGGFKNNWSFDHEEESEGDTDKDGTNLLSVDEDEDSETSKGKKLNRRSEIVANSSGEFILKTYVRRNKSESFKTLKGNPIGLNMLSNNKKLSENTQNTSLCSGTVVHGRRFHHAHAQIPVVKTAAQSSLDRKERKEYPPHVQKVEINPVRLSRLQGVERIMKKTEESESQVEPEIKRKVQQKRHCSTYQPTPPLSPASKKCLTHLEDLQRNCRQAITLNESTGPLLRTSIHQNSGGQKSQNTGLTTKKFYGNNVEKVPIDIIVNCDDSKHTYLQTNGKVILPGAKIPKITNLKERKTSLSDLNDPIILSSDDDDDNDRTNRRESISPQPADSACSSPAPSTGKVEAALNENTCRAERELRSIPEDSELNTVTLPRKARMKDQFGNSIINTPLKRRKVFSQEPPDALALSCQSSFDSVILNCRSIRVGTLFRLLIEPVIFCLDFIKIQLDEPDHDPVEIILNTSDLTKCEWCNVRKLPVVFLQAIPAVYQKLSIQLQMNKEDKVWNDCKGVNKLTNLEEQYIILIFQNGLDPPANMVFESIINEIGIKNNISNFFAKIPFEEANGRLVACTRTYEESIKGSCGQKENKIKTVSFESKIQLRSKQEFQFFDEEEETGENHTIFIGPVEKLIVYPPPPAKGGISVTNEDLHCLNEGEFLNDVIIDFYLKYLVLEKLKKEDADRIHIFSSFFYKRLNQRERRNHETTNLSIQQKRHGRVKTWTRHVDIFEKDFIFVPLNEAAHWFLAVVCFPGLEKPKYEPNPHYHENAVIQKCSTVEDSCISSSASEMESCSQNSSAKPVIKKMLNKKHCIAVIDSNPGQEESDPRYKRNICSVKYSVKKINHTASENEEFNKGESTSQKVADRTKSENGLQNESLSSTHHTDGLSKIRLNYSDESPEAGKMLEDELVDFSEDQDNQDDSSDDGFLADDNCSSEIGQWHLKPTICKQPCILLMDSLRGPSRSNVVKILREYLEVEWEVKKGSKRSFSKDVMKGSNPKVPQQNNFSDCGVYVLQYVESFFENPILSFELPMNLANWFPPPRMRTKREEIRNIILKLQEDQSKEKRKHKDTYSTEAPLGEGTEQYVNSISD

[6] = biological target: T5, Sentrin-specific protease 8 (Homo sapiens, UniProt Q96LD8);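 also: luminescence read-out of SENP8 inhibition, dose-response confirmation following an ultra-high-throughput screen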
T5 sequence (Q96LD8 whole entry): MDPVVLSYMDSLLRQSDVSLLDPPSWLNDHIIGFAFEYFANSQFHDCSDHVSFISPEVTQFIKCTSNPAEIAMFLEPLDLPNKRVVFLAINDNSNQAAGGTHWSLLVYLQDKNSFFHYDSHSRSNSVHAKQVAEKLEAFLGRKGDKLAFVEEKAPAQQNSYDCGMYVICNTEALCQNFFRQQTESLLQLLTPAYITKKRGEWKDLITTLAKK

[7] = biological target: T6, Sentrin-specific protease 7 (Homo sapiens, UniProt Q9BQF6);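 also: Luminescence-based dose-response confirmation of ultra-high-throughput screening hits, measuring inhibition of SENP7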
T6 sequence (Q9BQF6 whole entry): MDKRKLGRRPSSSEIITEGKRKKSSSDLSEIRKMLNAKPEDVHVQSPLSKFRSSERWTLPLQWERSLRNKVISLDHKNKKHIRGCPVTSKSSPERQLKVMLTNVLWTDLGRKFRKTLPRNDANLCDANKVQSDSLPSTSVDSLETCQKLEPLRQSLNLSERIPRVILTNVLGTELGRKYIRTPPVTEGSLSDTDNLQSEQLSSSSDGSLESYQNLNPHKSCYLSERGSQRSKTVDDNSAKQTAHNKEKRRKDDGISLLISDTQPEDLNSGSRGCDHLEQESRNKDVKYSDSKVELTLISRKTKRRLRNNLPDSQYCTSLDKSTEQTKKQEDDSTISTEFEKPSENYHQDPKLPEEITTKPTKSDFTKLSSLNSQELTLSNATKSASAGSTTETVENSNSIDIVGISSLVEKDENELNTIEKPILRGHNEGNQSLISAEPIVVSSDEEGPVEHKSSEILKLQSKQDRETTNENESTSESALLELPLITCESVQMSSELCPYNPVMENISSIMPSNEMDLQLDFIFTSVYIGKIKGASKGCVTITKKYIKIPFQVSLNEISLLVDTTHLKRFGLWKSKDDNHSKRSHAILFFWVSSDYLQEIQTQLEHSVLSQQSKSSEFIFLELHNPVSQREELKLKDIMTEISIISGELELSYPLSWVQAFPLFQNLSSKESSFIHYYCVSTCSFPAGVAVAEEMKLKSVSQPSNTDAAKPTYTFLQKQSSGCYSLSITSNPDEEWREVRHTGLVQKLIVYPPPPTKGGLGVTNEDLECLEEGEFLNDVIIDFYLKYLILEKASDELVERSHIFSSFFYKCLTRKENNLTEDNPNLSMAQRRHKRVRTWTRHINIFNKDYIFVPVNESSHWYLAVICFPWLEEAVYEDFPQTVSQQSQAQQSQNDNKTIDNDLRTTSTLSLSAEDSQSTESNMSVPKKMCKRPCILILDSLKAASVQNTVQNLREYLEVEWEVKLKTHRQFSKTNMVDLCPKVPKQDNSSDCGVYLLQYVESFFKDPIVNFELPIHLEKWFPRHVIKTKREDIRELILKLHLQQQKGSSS

Vero = assay: viability of Vero cells under compound – cytotoxicity control for flavivirus capping enzyme inhibitors (AID 588742); settings: Chlorocebus sabaeus
Genome polyprotein = Genome polyprotein (dengue virus type 2, UniProt P29990); assay: flavivirus cap methylation enzyme inhibition – biochemical, confirmation dose response, primary screen (AID 588689)
[8] = intracellular Trypanosoma cruzi inhibitors in host cells – cell-based, plate reader, cherry-pick samples, set 3, dose response (AID 651818);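 also: compounds incubated with infected cells for about four days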
Protein skinhead-1 = biological target: T7, Protein skinhead-1 (Caenorhabditis elegans, UniProt P34707)
T7 sequence (P34707 whole entry): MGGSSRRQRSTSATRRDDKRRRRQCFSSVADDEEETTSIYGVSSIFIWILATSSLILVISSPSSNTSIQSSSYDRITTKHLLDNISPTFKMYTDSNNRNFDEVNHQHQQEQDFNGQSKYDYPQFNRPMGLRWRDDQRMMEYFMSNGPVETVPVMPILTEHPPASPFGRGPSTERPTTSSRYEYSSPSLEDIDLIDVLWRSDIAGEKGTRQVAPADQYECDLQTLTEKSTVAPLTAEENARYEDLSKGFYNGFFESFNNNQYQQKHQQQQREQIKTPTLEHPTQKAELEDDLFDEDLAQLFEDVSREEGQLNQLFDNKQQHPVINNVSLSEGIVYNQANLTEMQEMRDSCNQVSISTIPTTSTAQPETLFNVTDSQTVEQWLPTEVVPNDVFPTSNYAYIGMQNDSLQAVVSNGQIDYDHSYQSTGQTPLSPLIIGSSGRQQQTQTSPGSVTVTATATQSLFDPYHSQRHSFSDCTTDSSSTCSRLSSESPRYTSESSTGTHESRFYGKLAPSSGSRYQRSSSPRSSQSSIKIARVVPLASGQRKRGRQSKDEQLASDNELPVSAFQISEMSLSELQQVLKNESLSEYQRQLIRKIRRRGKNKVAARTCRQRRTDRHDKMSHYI

Chain of Genome polyprotein (P29990 2492-3391 limits assumed): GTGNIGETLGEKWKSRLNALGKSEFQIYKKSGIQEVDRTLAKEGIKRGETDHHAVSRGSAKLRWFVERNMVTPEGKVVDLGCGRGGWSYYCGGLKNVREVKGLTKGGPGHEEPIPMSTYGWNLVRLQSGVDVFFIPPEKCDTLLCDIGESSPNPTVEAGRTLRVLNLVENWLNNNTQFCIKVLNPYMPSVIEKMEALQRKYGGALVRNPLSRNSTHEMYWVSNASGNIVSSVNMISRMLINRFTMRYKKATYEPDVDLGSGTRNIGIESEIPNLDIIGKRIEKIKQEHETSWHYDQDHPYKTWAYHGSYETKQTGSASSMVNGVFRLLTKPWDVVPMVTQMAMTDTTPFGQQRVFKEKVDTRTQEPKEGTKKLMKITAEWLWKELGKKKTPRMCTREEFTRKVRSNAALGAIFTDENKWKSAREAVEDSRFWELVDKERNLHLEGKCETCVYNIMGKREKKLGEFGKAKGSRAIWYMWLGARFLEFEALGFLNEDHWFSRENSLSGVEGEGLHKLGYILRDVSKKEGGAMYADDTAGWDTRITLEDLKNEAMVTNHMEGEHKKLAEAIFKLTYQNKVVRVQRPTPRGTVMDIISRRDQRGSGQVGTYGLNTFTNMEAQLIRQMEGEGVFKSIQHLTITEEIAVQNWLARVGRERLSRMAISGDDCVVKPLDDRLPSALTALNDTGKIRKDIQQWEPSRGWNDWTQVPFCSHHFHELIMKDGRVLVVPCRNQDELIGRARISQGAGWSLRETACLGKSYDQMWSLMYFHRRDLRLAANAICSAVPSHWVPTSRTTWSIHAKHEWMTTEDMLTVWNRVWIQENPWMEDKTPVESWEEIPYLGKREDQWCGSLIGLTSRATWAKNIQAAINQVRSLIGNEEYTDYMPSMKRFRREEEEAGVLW

Cc1ccc(C(=O)Nc2ccccc2C(=O)NC2CCCCC2)cc1S(=O)(=O)N1CCOCC1
IC50 [1]: > 47.1 µM (inactive) | EC50 [2]: > 53 µM (inactive)

Cc1cc(O)c(C2=Nc3ccccc3SC(c3ccc(Cl)cc3)C2)c(=O)o1 (stereo not given)
IC50 [1]: > 47.1 µM (inactive) | EC50 [2]: > 53 µM (inactive) | EC50 (H4): 107 µM (inconclusive) | EC50 [3]: 21 µM (active) | EC50 [4]: 38.4 µM (active)

COc1ccc(C(=O)Nc2cccc(C(=O)O)c2)cc1S(=O)(=O)N1CCCC1
IC50 (Caspase-3): 46.9 µM (active) | IC50 [5]: 22.1 µM (active) | IC50 [6]: 26.6 µM (active) | IC50 [7]: 6.06 µM (active)

Cc1cccc(C(=O)N2c3ccccc3C(=O)OC2c2ccc3c(c2)OCO3)c1 (stereo not given)
IC50 [1]: < 0.368 µM (active) | EC50 [2]: > 53 µM (inactive)

Cc1ccc(C(=O)Nc2cccc3cccnc23)cc1C
IC50 (Caspase-3): 15.6 µM (active) | IC50 [5]: 14.5 µM (active) | IC50 [6]: 18.8 µM (active) | IC50 [7]: 3.98 µM (active)

N#CC(=C1C=C(Br)C(=NO)C=C1Cl)c1ccc(Cl)cc1
CC50 (Vero): > 40 µM (active) | IC50 (Genome polyprotein): 62.4 µM (active)

COC(=O)C1=C(C)N=C(C)/C(=C(/O)OC)C1/C=C/c1ccccc1 (stereo not given)
IC50 [1]: > 47.1 µM (inactive) | EC50 [2]: > 53 µM (inactive)

C[C@@H]1CCCCO[C@@H](CN(C)Cc2ccc(C(F)(F)F)cc2)[C@@H](C)CN([C@H](C)CO)C(=O)c2cc(NS(=O)(=O)c3ccc(F)cc3)ccc2O1
AC50 [8]: 5.13 µM (active)

C[C@@H]1CN([C@H](C)CO)C(=O)Cc2cc(NC(=O)Nc3ccc(C(F)(F)F)cc3)ccc2O[C@@H]1CN(C)Cc1ccc(Cl)c(Cl)c1
AC50 [8]: 6.82 µM (active)

C[C@@H]1CN([C@H](C)CO)C(=O)c2cccc(NC(=O)c3nc4ccccc4s3)c2O[C@@H]1CN(C)Cc1ccc(C(F)(F)F)cc1
AC50 [8]: 5.42 µM (active)

C[C@@H]1CN([C@@H](C)CO)C(=O)c2cccc(NC(=O)Nc3ccccc3)c2O[C@H]1CN(C)Cc1ccc(Oc2ccccc2)cc1
AC50 [8]: 2.97 µM (active)

O=[N+]([O-])c1ccc(CSc2nc3ccccc3o2)cc1
IC50 (Caspase-3): 25.6 µM (active) | IC50 [5]: 23.3 µM (active) | IC50 (Protein skinhead-1): > 100 µM (inactive) | IC50 [6]: 16.2 µM (active) | IC50 [7]: 7.69 µM (active)
